According to patent US20260042755A1, “GPR6 INVERSE AGONISTS” (MapLight Therapeutics, Inc., priority 2022, published 2026):

Legend:
[1] = target: T1, GPR6 (Homo sapiens, UniProt P46095); experiment: GPR6 antagonist functional cAMP assay (LANCE Ultra cAMP TR-FRET, CHO cells stably expressing GPR6); type: cell-based
T1 construct: expressed in transfected cells; host or cells: CHO cells
Summary of the method: (§1)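 10,000 cells/well; KRB buffer + 0.1% BSA + 150 μM Ro 20-1724; cpd 45 min, 37 °C, 0.1% DMSO; TR-FRET cAMP, 665 nm; 4-PL fit, normalized to DMSO (0.1%) and reference (100%) → IC50.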

[2] = target: T2, GPR3 (Homo sapiens, UniProt P46089); experiment: GPR3 antagonist functional cAMP assay (LANCE Ultra cAMP TR-FRET, CHO cells stably expressing GPR3); type: cell-based
T2 construct: expressed in transfected cells; host or cells: CHO cells
Summary of the method: as §1

[3] = CHO cells stably expressing GPR6, cAMP assay
[4] = CHO cells stably expressing GPR3, cAMP assay
[5] = CHO cells stably expressing GPR6, cAMP assay (Example 24)
[6] = CHO cells stably expressing GPR3, cAMP assay (Example 24)
[7] = procedure as described in Example 24

T2 sequence (P46089 whole entry, species assumed): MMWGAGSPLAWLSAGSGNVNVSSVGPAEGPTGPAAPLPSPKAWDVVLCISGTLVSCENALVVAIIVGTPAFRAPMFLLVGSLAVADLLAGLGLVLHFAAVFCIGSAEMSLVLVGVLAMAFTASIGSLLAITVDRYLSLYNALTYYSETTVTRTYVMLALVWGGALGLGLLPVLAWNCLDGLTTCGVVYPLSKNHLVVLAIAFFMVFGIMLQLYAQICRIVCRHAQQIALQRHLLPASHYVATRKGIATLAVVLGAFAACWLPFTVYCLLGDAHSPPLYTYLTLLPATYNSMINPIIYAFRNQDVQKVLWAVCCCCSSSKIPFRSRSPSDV
T1 sequence (P46095 whole entry): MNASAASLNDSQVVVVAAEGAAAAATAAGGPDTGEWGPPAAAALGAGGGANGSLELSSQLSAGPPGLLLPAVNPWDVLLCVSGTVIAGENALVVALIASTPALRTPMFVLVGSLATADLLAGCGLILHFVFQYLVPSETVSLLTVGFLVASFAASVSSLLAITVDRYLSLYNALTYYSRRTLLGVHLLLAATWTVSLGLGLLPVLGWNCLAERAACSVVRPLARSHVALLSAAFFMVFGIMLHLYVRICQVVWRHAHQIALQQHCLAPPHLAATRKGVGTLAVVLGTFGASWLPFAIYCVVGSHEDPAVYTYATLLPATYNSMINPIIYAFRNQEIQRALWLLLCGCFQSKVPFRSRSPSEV

SMILES	IC50 [1, 5] [nM]	IC50 [2, 6] [nM]	IC50 ([1]; procedure of Example 24) [nM]	IC50 ([2]; procedure of Example 24) [nM]	other results
CCn1cc(-c2nc3c(nc2N2CCC(Oc4ccc(F)cc4F)CC2)CCN(C(=O)C(O)C(C)(C)O)C3)cn1 (stereo not drawn) [Compound 521, 1-{2-[4-(2,4-difluorophenoxy)-1-piperidyl]-3-(1-ethyl-4-pyrazolyl)-5,6,7,8-tetrahydro-1,4,6-triaza-6-naphthyl}-2,3-dihydroxy-3-methyl-1-butanone]	–	–	–	–	IC50 [1, 3]: 100 to 1000 nM; IC50 [2, 4]: 1000 to 30000 nM
CC(=O)N1CCc2nc(N3CCC(Oc4ccc(F)cc4F)CC3)c(-c3cccc(NC(C)C)n3)nc2C1 [Compound 103, 1-{2-[4-(2,4-difluorophenoxy)piperidin-1-yl]-3-{6-[(propan-2-yl)amino]pyridin-2-yl}-5H,6H,7H,8H-pyrido [3,4-b]pyrazin-6-yl}ethan-1-one]	1000 to 30000	≥ 30000	–	–	–
CC(=O)N1CCc2nc(N3CCC(Oc4ccc(F)cc4F)CC3)c(-c3cccc(=O)n3C)nc2C1 [Compound 36, 6-{6-acetyl-2-[4-(2,4-difluorophenoxy)piperidin-1-yl]-5H,6H,7H,8H-pyrido[3,4-b]pyrazin-3-yl}-1-methyl-1,2-dihydropyridin-2-one]	–	–	–	–	IC50 [1, 7]: 1000 to 30000 nM; IC50 [2, 7]: 100 to 1000 nM
CC(=O)N1CCc2nc(N3CCC(Oc4ccc(F)cc4F)CC3)c(C3CCCC(=O)N3)nc2C1 (stereo not drawn) [Compound 258, 6-{6-acetyl-2-[4-(2,4-difluorophenoxy)piperidin-1-yl]-5H,6H,7H,8H-pyrido[3,4-b]pyrazin-3-yl}piperidin-2-one]	≥ 30000	≥ 30000	–	–	–
Clc1ccc(Cl)c(CN2CCN(c3nc4cnccc4nc3-c3ncc[nH]3)CC2)c1 [Compound 64, 1-[(2,5-dichlorophenyl)methyl]-4-[2-(1H-imidazol-2-yl)pyrido[3,4-b]pyrazin-3-yl]piperazine]	100 to 1000	100 to 1000	–	–	–
CC(=O)N1CCc2nc(N3CCC(Oc4ccc(F)cc4F)CC3)c(-c3cccc(CO)n3)nc2C1 [Compound 133, 1-(2-(4-(2,4-difluorophenoxy)piperidin-1-yl)-3-(6-(hydroxymethyl)pyridin-2-yl)-7,8-dihydropyrido[3,4-b]pyrazin-6(5H)-yl)ethan-1-one]	1000 to 30000	1000 to 30000	–	–	–
O=C(CO)N1CCc2nc(N3CCC(Oc4ccc(F)cc4F)CC3)c(-c3cn[nH]c3)nc2C1 [Compound 179, 1-{2-[4-(2,4-difluorophenoxy)piperidin-1-yl]-3-(1H-pyrazol-4-yl)-5H,6H,7H,8H-pyrido[3,4-b]pyrazin-6-yl}-2-hydroxyethan-1-one]	< 100	1000 to 30000	–	–	–
CCn1cc(-c2nc3c(nc2N2CCC(Oc4ccc(F)cc4F)CC2)CCN(S(=O)(=O)C(C)C)C3)cn1 [Compound 266, 4-(2,4-difluorophenoxy)-1-[3-(1-ethyl-1H-pyrazol-4-yl)-6-(propane-2-sulfonyl)-5H,6H,7H,8H-pyrido[3,4-b]pyrazin-2-yl]piperidine]	–	–	< 100	1000 to 30000	–
CN1CCc2nc(N3CCC(Oc4ccc(F)cc4F)CC3)c(-c3cnn(C4CCCCO4)c3)nc2C1 (stereo not drawn) [Compound 169, 4-(2,4-difluorophenoxy)-1-{6-methyl-3-[1-(oxan-2-yl)-1H-pyrazol-4-yl]-5H,6H,7H,8H-pyrido[3,4-b]pyrazin-2-yl}piperidine]	1000 to 30000	1000 to 30000	–	–	–
C[C@@H]1CN(Cc2ccc(F)cc2F)CCN1c1nc2ccncc2nc1-c1cnn(C)c1 (single isomer, unassigned) [Compound 224]	1000 to 30000	1000 to 30000	–	–	–
COCC1CN(c2nc3ccncc3nc2-c2cn[nH]c2)CCN1Cc1ccc(F)cc1F (single isomer, unassigned) [Compound 89, 2-(4-(2,4-difluorobenzyl)-3-(methoxymethyl)piperazin-1-yl)-3-(1H-pyrazol-4-yl)pyrido[3,4-b]pyrazine]	1000 to 30000	1000 to 30000	–	–	–
CC(=O)N1CCc2nc(N3CCC(Oc4ccc(F)cc4F)CC3)c(-c3cn[nH]c3F)nc2C1 [Compound 135, 1-(2-(4-(2,4-difluorophenoxy)piperidin-1-yl)-3-(5-fluoro-1H-pyrazol-4-yl)-7,8-dihydropyrido[3,4-b]pyrazin-6(5H)-yl)ethanone]	100 to 1000	1000 to 30000	–	–	–
CCn1cc(-c2nc3cnccc3nc2N2CCC(Oc3cc(Cl)ccc3F)CC2)cn1 [Compound 295, 4-(5-chloro-2-fluorophenoxy)-1-[3-(1-ethyl-1H-pyrazol-4-yl)pyrido[3,4-b]pyrazin-2-yl]piperidine]	–	–	< 100	1000 to 30000	–
Cn1cc(-c2nc3cc(C(O)C(C)(C)O)ncc3nc2N2CCN(Cc3ccc(F)cc3F)CC2)cn1 (stereo not drawn) [Compound 268, 1-(3-{4-[(2,4-difluorophenyl)methyl]piperazin-1-yl}-2-(1-methyl-1H-pyrazol-4-yl)pyrido[3,4-b]pyrazin-7-yl)-2-methylpropane-1,2-diol]	–	–	< 100	1000 to 30000	–
COc1ncc(-c2nc3c(nc2N2CCC(Oc4ccc(F)cc4F)CC2)CCN(C(C)=O)C3)cc1F [Compound 160, 1-{2-[4-(2,4-difluorophenoxy)piperidin-1-yl]-3-(5-fluoro-6-methoxypyridin-3-yl)-5H,6H,7H,8H-pyrido[3,4-b]pyrazin-6-yl}ethan-1-one]	100 to 1000	1000 to 30000	–	–	–
Cn1cc(-c2nc3cnccc3nc2N2CC(Oc3ccc(F)cc3F)C2)cn1 [Compound 327, 4-{2-[3-(2,4-difluorophenoxy)azetidin-1-yl]pyrido[3,4-b]pyrazin-3-yl}-1-methyl-1H-pyrazole]	–	–	1000 to 30000	1000 to 30000	–
COCC(=O)N1CCc2nc(N3CCC(Oc4ccc(F)cc4F)CC3)c(-c3cn[nH]c3)nc2C1 [Compound 148, 1-{2-[4-(2,4-difluorophenoxy)piperidin-1-yl]-3-(1H-pyrazol-4-yl)-5H,6H,7H,8H-pyrido[3,4-b]pyrazin-6-yl}-2-methoxyethan-1-one]	< 100	1000 to 30000	–	–	–
CC(=O)N1CCc2nc(N3CCN(Cc4ccccn4)CC3)c(-c3cnn(C)c3)nc2C1 [Compound 511, 1-[3-(1-methyl-4-pyrazolyl)-2-{4-[(2-pyridyl)methyl]-1-piperazinyl}-5,6,7,8-tetrahydro-1,4,6-triaza-6-naphthyl]-1-ethanone]	–	–	–	–	IC50 [1, 3]: ≥ 30000 nM; IC50 [2, 4]: ≥ 30000 nM
CC(=O)N1CCc2nc(N3CCC(Oc4ccc(F)cc4F)CC3)c(-c3ncc[nH]3)nc2C1 [Compound 40, 1-(2-(4-(2,4-difluorophenoxy)piperidin-1-yl)-3-(1H-imidazol-2-yl)-7,8-dihydropyrido[3,4-b]pyrazin-6(5H)-yl)ethan-1-one]	–	–	–	–	IC50 [1, 7]: 1000 to 30000 nM; IC50 [2, 7]: 1000 to 30000 nM
OCC1CN(c2nc3ccncc3nc2-c2cn[nH]c2)CCN1Cc1ccc(F)cc1F (single isomer, unassigned) [Compound 93, (4-(3-(1H-pyrazol-4-yl)pyrido[3,4-b]pyrazin-2-yl)-1-(2,4-difluorobenzyl)piperazin-2-yl)methanol]	1000 to 30000	≥ 30000	–	–	–

More lines, main results first:

IC50 [1, 5] [nM]	IC50 [2, 6] [nM]	IC50 ([1]; procedure of Example 24) [nM]	IC50 ([2]; procedure of Example 24) [nM]	SMILES	other results
–	–	1000 to 30000	≥ 30000	Cn1cc(-c2nc3c(nc2N2CC[C@H](Oc4ccc(F)cc4F)[C@H](F)C2)CCN(Cc2ccccc2)C3)cn1 (single isomer, unassigned) [Compound 333]	–
–	–	100 to 1000	1000 to 30000	CC(C)(O)[C@](C)(O)c1cc2nc(N3CCN(Cc4ccc(F)cc4F)CC3)c(-c3cnn(CF)c3)nc2cn1 (single isomer, unassigned) [Compound 649]	–
–	–	100 to 1000	1000 to 30000	CC(C)(O)[C@H](O)c1cc2nc(-c3cnn(C(F)F)c3)c(N3CCN(Cc4ccccc4F)CC3)nc2cn1 (single isomer, unassigned) [Compound 685]	–
–	–	100 to 1000	1000 to 30000	CC(=O)N1CCc2nc(N3CCN(Cc4cc(Cl)c(F)cc4F)CC3)c(-c3cnn(C)c3)nc2C1 [Compound 360, 1-(2-{4-[(5-chloro-2,4-difluorophenyl)methyl]piperazin-1-yl}-3-(1-methyl-1H-pyrazol-4-yl)-5H,6H,7H,8H-pyrido[3,4-b]pyrazin-6-yl)ethan-1-one]	–
–	–	100 to 1000	1000 to 30000	CC(C)(O)[C@@](C)(O)c1cc2nc(-c3cnn(C4CC4)c3)c(N3CCN(Cc4ccccc4F)CC3)nc2cn1 (single isomer, unassigned) [Compound 776]	–
–	–	< 100	1000 to 30000	CC(C)(O)C(C)(O)c1cc2nc(-c3cnn(C(F)F)c3)c(N3CCN(Cc4ccc(F)cc4F)CC3)nc2cn1 (single isomer, unassigned) [Compound 662]	–
100 to 1000	1000 to 30000	–	–	CC(C)(O)C(O)c1cc2nc(N3CCC(Oc4ccc(F)cc4F)CC3)c(-c3cnn(C(F)F)c3)nc2cn1 (stereo not drawn) [Compound 407, 1-{3-[1-(difluoromethyl)-4-pyrazolyl]-2-[4-(2,4-difluorophenoxy)-1-piperidyl]-1,4,6-triaza-7-naphthyl}-2-methyl-1,2-propanediol]	–
–	–	100 to 1000	1000 to 30000	CC(C)(O)[C@](C)(O)c1cc2nc(N3CCC(Oc4ccc(F)cc4F)CC3)c(-c3cnn(CF)c3)nc2cn1 (single isomer, unassigned) [Compound 677]	–
–	–	1000 to 30000	1000 to 30000	CC(=O)N1CCc2nc(N3CCC4(CC3)CC4c3ccc(F)cc3F)c(-c3cnn(C)c3)nc2C1 (stereo not drawn) [Compound 660, 1-(2-(1-(2,4-difluorophenyl)-6-azaspiro[2.5]octan-6-yl)-3-(1-methyl-1H-pyrazol-4-yl)-7,8-dihydropyrido[3,4-b]pyrazin-6(5H)-yl)ethan-1-one]	–
–	–	100 to 1000	1000 to 30000	CC(C)(O)CNc1cc2nc(-c3cnn(CF)c3)c(N3CCN(Cc4ccc(F)cc4F)CC3)nc2cn1 [Compound 757, 1-(3-{4-[(2,4-difluorophenyl)methyl]-1-piperazinyl}-2-[1-(fluoromethyl)-4-pyrazolyl]-1,4,6-triaza-7-naphthylamino)-2-methyl-2-propanol]	–
